Experimental data published in PMC5085689, “Cinnamide Derivatives as Mammalian Arginase Inhibitors: Synthesis, Biological Evaluation and Molecular Docking” (International Journal of Molecular Sciences, 2016).
Where “and” joins values, the source holds several entries; their conditions need not be identical. Identical values can stand only once. Like-named read-outs stand apart in the source and are kept apart here.

Key:
b-ARG I = biological target: T1, b-ARG I (Bos taurus, UniProt Q2KJ64); assay: Enzyme kinetic study and determination of Ki values on b-ARG I; type: biochemical, bovine; details: for Type of Inhibition: Lineweaver–Burk, Dixon and Cornish–Bowden plots
T1 construct: commercially-available purified bovine arginase (b-ARG I) instead of animal tissue; purchased MP Biomedicals; host or cells: bovine liver (enzyme purified from tissue)
T1 sequence (Q2KJ64 1-322): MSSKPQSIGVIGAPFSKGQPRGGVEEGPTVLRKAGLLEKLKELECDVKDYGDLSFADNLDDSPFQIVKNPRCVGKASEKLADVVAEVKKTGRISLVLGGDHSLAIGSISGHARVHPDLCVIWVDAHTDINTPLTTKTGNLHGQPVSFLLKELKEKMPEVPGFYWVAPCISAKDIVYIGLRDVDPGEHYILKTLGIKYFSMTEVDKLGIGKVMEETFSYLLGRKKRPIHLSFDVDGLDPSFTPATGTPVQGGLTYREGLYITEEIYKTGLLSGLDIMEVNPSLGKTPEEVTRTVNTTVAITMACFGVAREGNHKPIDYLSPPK

[1] = biological target: T2, purified liver bovine arginase (b-ARG I) (Bos taurus, UniProt Q2KJ64); assay: In vitro colorimetric microassay of arginase inhibition on purified bovine liver arginase; type: biochemical; details: for inhibition at 100 µM: read-out: b-ARG I Inhibition (%) (100 μM);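 on all read-outs here: urea formed from L-arginine detected colorimetrically with alpha-isonitrosopropiophenone at 550 nm after 60 min at 37 °C, inhibition relative to solvent controls taken as 100% arginase activity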
T2 construct: commercially-available purified bovine arginase (b-ARG I) instead of animal tissue; purchased MP Biomedicals; host or cells: bovine liver (enzyme purified from tissue)
T2 sequence (Q2KJ64 1-322): T1 sequence (Q2KJ64 1-322)

[2] = biological target: T3, recombinant human arginase I (h-ARG I) (Homo sapiens, UniProt P05089); assay: In vitro colorimetric microassay of arginase inhibition on recombinant human arginase I; type: biochemical
T3 construct: purchased Interchim BXC572/n P0408M10
T3 sequence (P05089 1-322): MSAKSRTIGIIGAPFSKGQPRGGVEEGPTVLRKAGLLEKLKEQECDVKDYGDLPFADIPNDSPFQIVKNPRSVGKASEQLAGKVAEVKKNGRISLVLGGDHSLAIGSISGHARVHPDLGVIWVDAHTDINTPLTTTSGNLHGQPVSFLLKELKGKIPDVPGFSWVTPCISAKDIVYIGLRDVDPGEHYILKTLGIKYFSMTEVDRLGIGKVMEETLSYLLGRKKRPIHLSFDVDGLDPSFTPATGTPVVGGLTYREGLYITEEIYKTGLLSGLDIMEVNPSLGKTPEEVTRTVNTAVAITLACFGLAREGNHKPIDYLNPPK

[3] = b-ARG I, Cheng–Prusoff equation, [S] = 14.3 mM L-arginine, Km = 55.5 ± 10.5 µM, read-out: Ki
[4] = 100 μM final concentration, three separate in-duplicate experiments
[5] = purified bovine liver arginase, three separate in-triplicate experiments, read-out: IC50 (b-ARG I)

Compound: O=C(/C=C/c1ccc(O)c(O)c1)O[C@@H]1C[C@](O)(C(=O)O)C[C@@H](O)[C@H]1O [CGA, chlorogenic acid, reference compound]
- Ki (b-ARG I): 8.4 ± 1.2 µM
- Type of Inhibition (b-ARG I; b-ARG I): competitive
- IC50 ([1]; IC50 (b-ARG I), purified bovine liver arginase, three separate in-triplicate experiments): < 50 µM and 10.6 µM
- inhibition at 100 µM [1]: 71 ± 1%

Compound: O=C(O)/C=C/c1ccc(O)c(O)c1 [Caffeic acid, reference compound]
- IC50 [1]: 86.7 ± 8 µM

Compound: O=C(/C=C/c1ccc(O)c(O)c1)NCCc1ccccc1 [Compound 1, (E)-N-(2-Phenylethyl)-3,4-dihydroxycinnamide]
- Ki (b-ARG I; [3]): 5.5 ± 1 µM
- Type of Inhibition (b-ARG I; b-ARG I, listed as CAPA): competitive inhibitor
- Type of Inhibition (b-ARG I; b-ARG I, listed as CAPA (1)): competitive
- inhibition at 100 µM [1, 4]: 64 ± 2%
- IC50 [1, 5]: 6.9 ± 1.3 µM
- IC50 [2]: 60.3 ± 7.8 µM

Compound: COc1cc(/C=C/C(=O)NCCc2ccccc2)ccc1O [Compound 2, (E)-N-(2-Phenylethyl)-3-methoxy-4-hydroxycinnamide]
- inhibition at 100 µM [1, 4]: 37 ± 4%

Compound: O=C(/C=C/c1ccc(O)cc1)NCCc1ccccc1 [Compound 3, (E)-N-(2-Phenylethyl)-4-hydroxycinnamide]
- inhibition at 100 µM [1, 4]: 31 ± 4%

Compound: COc1cc(/C=C/C(=O)NCCc2ccccc2)cc(OC)c1OC [Compound 4, (E)-N-(2-Phenylethyl)-3,4,5-trimethoxycinnamide]
- inhibition at 100 µM [1, 4]: 35 ± 2%

Compound: O=C(/C=C/c1ccccc1)NCCc1ccccc1 [Compound 5, (E)-N-(2-Phenylethyl)cinnamide]
- inhibition at 100 µM [1, 4]: 34 ± 2%

Compound: O=C(/C=C/c1ccc(O)c(O)c1)NCCc1ccc(O)cc1 [Compound 6, (E)-N-(2-(4-Hydroxyphenyl)ethyl)-3,4-dihydroxycinnamide]
- inhibition at 100 µM [1, 4]: 58 ± 2%
- IC50 [1, 5]: 22.1 ± 1.6 µM

Compound: COc1cc(/C=C/C(=O)NCCc2ccc(O)cc2)ccc1O [Compound 7, (E)-N-(4-Hydroxyphenethyl)-3-methoxy-4-hydroxycinnamide]
- inhibition at 100 µM [1, 4]: 24 ± 2%

Compound: O=C(/C=C/c1ccc(O)cc1)NCCc1ccc(O)cc1 [Compound 8, (E)-N-(4-Hydroxyphenethyl)-4-hydroxycinnamide]
- inhibition at 100 µM [1, 4]: 40 ± 2%

Compound: COc1cc(/C=C/C(=O)NCCc2ccc(O)cc2)cc(OC)c1OC [Compound 9, (E)-N-(4-Hydroxyphenethyl)-3,4,5-trimethoxycinnamide]
- inhibition at 100 µM [1, 4]: 30 ± 2%

Compound: O=C(/C=C/c1ccccc1)NCCc1ccc(O)cc1 [Compound 10, (E)-N-(4-Hydroxyphenethyl)-cinnamide]
- inhibition at 100 µM [1, 4]: 34 ± 3%

Compound: O=C(/C=C/c1ccc(O)c(O)c1)NCCc1ccc(O)c(O)c1 [Compound 11, (E)-N-(3,4-Dihydroxyphenethyl)-3,4-dihydroxycinnamide]
- inhibition at 100 µM [1, 4]: 62 ± 3%
- IC50 [1, 5]: 115 ± 1.3 µM

Compound: COc1cc(/C=C/C(=O)NCCc2ccc(O)c(O)c2)ccc1O [Compound 12, (E)-N-(3,4-Dihydroxyphenethyl)-3-methoxy-4-hydroxycinnamide]
- inhibition at 100 µM [1, 4]: 61 ± 3%
- IC50 [1, 5]: 198.7 ± 1.4 µM

Compound: O=C(/C=C/c1ccc(O)cc1)NCCc1ccc(O)c(O)c1 [Compound 13, (E)-N-(3,4-Dihydroxyphenethyl)-4-hydroxycinnamide]
- inhibition at 100 µM [1, 4]: 54 ± 1%
- IC50 [1, 5]: 170.4 ± 1.7 µM

Compound: COc1cc(/C=C/C(=O)NCCc2ccc(O)c(O)c2)cc(OC)c1OC [Compound 14, (E)-N-(3,4-Dihydroxyphenethyl)-3,4,5-trimethoxycinnamide]
- inhibition at 100 µM [1, 4]: 53 ± 1%
- IC50 [1, 5]: 193.6 ± 1.4 µM

Compound: O=C(/C=C/c1ccccc1)NCCc1ccc(O)c(O)c1 [Compound 15, (E)-N-(3,4-Dihydroxyphenethyl)cinnamide]
- inhibition at 100 µM [1, 4]: 68 ± 3%
- IC50 [1, 5]: 39.3 ± 1.4 µM

Compound: O=C(/C=C/c1ccc(O)c(O)c1)Nc1ccc(O)cc1 [Compound 16, (E)-N-(4-Hydroxyphenyl)-3,4-dihydroxycinnamide]
- inhibition at 100 µM [1, 4]: 59 ± 1%
- IC50 [1, 5]: 35.6 ± 1.3 µM

Compound: O=C(NCCc1ccc(O)cc1)c1ccc(O)c(O)c1 [Compound 17, N-(4-Hydoxyphenethyl)-3,4-dihydroxybenzamide]
- inhibition at 100 µM [1, 4]: 52 ± 2%
- IC50 [1, 5]: 175.3 ± 1.5 µM

Compound: COC(=O)C(Cc1ccc(O)c(O)c1)NC(=O)C=Cc1ccc(O)c(O)c1 (stereo not shown) [Compound 18, 3-(3,4-Dihydroxyphenyl)-2-[3-(3,4-dihydroxyphenyl)-acryloylamino]-propionic acid methyl ester]
- inhibition at 100 µM [1, 4]: 62 ± 1%
- IC50 [1, 5]: 41.9 ± 1.3 µM

Compound: COC(=O)[C@H](CS)NC(=O)/C=C/c1ccc(O)c(O)c1 [Compound 19, (E)-N-(3,4-Dihydroxycinnamoyl)-L-cysteine methyl ester]
- inhibition at 100 µM [1, 4]: 67 ± 1%
- IC50 [1, 5]: 37 ± 1.3 µM

Compound: N=C(NO)NCC[C@H](N)C(=O)O [nor-NOHA, N^ω-hydroxy-nor-L-arginine, reference compound]
- Ki (b-ARG I; [3]): 1.3 ± 0.1 µM
- Type of Inhibition (b-ARG I; b-ARG I): competitive
- inhibition at 100 µM [1, 4]: 99 ± 1%
- IC50 [1, 5]: 1.7 ± 0.2 µM
